Reference: US12565488B2, “Inhibitors of influenza virus replication” (COCRYSTAL PHARMA, INC., priority 2018, dated 2026)
pEC50: −log10 of the molar value.

Test system: Influenza type A (strain A/PR/8/34, ATCC VR-95)
Assay: Influenza antiviral assay: inhibition of virus-induced cytopathic effects (CPE) in MDCK cells, XTT dye reduction
Format: cell-based
Conditions: Influenza A (H1N1) replication in MDCK cells, CPE reduction by XTT at 4 days post-infection; read-out: Influenza H1N1 affinity, EC50

O=C(NCC1c2ccccc2COc2ccccc21)c1c(O)c(=O)ccn1CC1c2ccccc2COc2ccccc21 (stereo not drawn) [Compound 106] was tested, and the pEC50 was < 4.00.
For O=C(NCC1c2ccccc2COc2ccccc21)c1c(O)c(=O)ccn1CC1c2ccccc2COc2ccccc21 (stereo not drawn) [Compound 107], the pEC50 was < 4.00.

Same assay, conditions: Influenza A virus, H1N1 / PR/8, MDCK, 96 h, Influenza A (H1N1) replication in MDCK cells, CPE reduction by XTT at 4 days post-infection; read-out: Influenza H1N1 affinity, EC50

CC(C)NC(=O)c1c(O)c(=O)ccn1N(C)C1c2ccccc2COc2ccccc21 (stereo not drawn) [Compound 10] and CN(C)C(=O)c1c(O)c(=O)ccn1NC1c2ccccc2COc2ccccc21 (stereo not drawn) [Compound 5] cannot be ordered by pEC50: < 4.00 for the first, < 4.00 for the second.

CNC(=O)c1c(O)c(=O)ccn1NC(c1cccc2ccccc12)c1cccc2ccccc12 [Compound 69] and O=C(O)c1c(O)c(=O)ccn1NC(c1cccc2ccccc12)c1cccc2ccccc12 [Compound 68] cannot be ordered by pEC50: < 4.00 for the first, < 4.00 for the second.

First: O=C(O)c1c(O)c(=O)ccn1NC1c2ccccc2SCc2c1ccc(Br)c2Cl (stereo not drawn) [Compound 97]
Second: O=C(O)c1c(O)c(=O)ccn1NC1c2ccccc2SCc2c1ccc(F)c2Br (stereo not drawn) [Compound 96]
The pEC50 of the first is lower: 5.00 to 6.00 for the first, 6.00 to 7.00 for the second. The second is the more potent here.

O=C(NCc1cccc2ccccc12)c1c(O)c(=O)ccn1NC1c2ccccc2COc2ccccc21 (stereo not drawn) [Compound 24] and O=C(Nc1cccc2ccccc12)c1c(O)c(=O)ccn1NC1c2ccccc2COc2ccccc21 (stereo not drawn) [Compound 21] cannot be ordered by pEC50: < 4.00 for the first, < 4.00 for the second.

O=c1ccn(NC2CCOCc3ccccc32)cc1O (stereo not drawn) [Compound 12] and CNC(=O)c1c(O)c(=O)ccn1NC1CCOCc2ccccc21 (stereo not drawn) [Compound 56] cannot be ordered by pEC50: < 4.00 for the first, < 4.00 for the second.

O=C(NCC(F)(F)F)c1c(O)c(=O)ccn1NC1c2ccccc2SCc2c1ccc(F)c2F (stereo not drawn) [Compound 42, 1-((7,8-difluoro-6,11-dihydrodibenzo[b,e]thiepin-11-yl)amino)-3-hydroxy-4-oxo-N-(2,2,2-trifluoroethyl)-1,4-dihydropyridine-2-carboxamide] and O=C(NO)c1c(O)c(=O)ccn1NC1c2ccccc2SCc2c1ccc(F)c2F (stereo not drawn) [Compound 129] fall in the same range of pEC50: 5.00 to 6.00 for the first, 5.00 to 6.00 for the second.

O=C(NCc1ccc(C(F)(F)F)cc1)c1c(O)c(=O)ccn1NC1c2ccccc2COc2ccccc21 (stereo not drawn) [Compound 31] and O=C(NCc1cccc(C(F)(F)F)c1)c1c(O)c(=O)ccn1NC1c2ccccc2COc2ccccc21 (stereo not drawn) [Compound 37] cannot be ordered by pEC50: < 4.00 for the first, < 4.00 for the second.

CNC(=O)c1c(O)c(=O)ccn1NC(c1ccccc1)c1ccccc1 [Compound 61] and CNC(=O)c1c(O)c(=O)ccn1CC(c1ccccc1)c1ccccc1 [Compound 38] cannot be ordered by pEC50: < 4.00 for the first, < 4.00 for the second.

First: O=C(O)c1c(O)c(=O)ccn1CC1c2ccccc2SCc2c1ccc(F)c2F (stereo not drawn) [Compound 118]
Second: O=C(O)c1c(O)c(=O)ccn1NC1c2ccccc2SCc2c1ccc(F)c2F (stereo not drawn) [Compound 40, 1-((7,8-difluoro-6,11-dihydrodibenzo[b,e]thiepin-11-yl)amino)-3-hydroxy-4-oxo-1,4-dihydropyridine-2-carboxylic acid]
The pEC50 of the first is lower: < 4.00 for the first, 5.00 to 6.00 for the second.

O=C(NCCOCCO)c1c(O)c(=O)ccn1NC1CCCNc2ccccc21 (stereo not drawn) [Compound 8] and O=C(NCCOCCO)c1c(O)c(=O)ccn1NC1CCCN(Cc2ccccc2)c2ccccc21 (stereo not drawn) [Compound 17] cannot be ordered by pEC50: < 4.00 for the first, < 4.00 for the second.

CN(C1c2ccccc2COc2ccccc21)n1ccc(=O)c(O)c1 (stereo not drawn) [Compound 28] and O=c1ccn(NC2c3ccccc3COc3ccccc32)cc1O (stereo not drawn) [Compound 4] cannot be ordered by pEC50: < 4.00 for the first, < 4.00 for the second.

Compared with COc1ccc2c(c1)C(Nn1ccc(=O)c(O)c1C(=O)O)c1ccccc1CS2 (stereo not drawn) [Compound 115], O=C(O)c1c(O)c(=O)ccn1NC1c2ccccc2CSc2ccccc21 (stereo not drawn) [Compound 59] is higher in pEC50: < 4.00 for the first, 4.00 to 5.00 for the second.

First: O=C(NCc1ccc(-c2ccccc2)cc1)c1c(O)c(=O)ccn1NC1c2ccccc2COc2ccccc21 (stereo not drawn) [Compound 23, N-(Biphenyl-4-ylmethyl)-1-(6,11-dihydrodibenzo[b,e]oxepin-11-ylamino)-3-hydroxy-4-oxo-1,4-dihydropyridine-2-carboxamide]
Second: O=C(NCc1cccc(-c2ccccc2)c1)c1c(O)c(=O)ccn1NC1c2ccccc2COc2ccccc21 (stereo not drawn) [Compound 33]
The pEC50 of the first is higher: 5.00 to 6.00 for the first, < 4.00 for the second. The first is the more potent here.

First: O=C(O)c1c(O)c(=O)ccn1NC1c2ccccc2OCc2c(F)cccc21 (stereo not drawn) [Compound 66]
Second: CNC(=O)c1c(O)c(=O)ccn1NC1c2ccccc2OCc2c(F)cccc21 (stereo not drawn) [Compound 74]
The pEC50 of the first is higher: 4.00 to 5.00 for the first, < 4.00 for the second.

O=C(O)c1c(O)c(=O)ccn1NC1c2cc(Cl)ccc2COc2ccc(Cl)cc21 (stereo not drawn) [Compound 58, 1-((2,9-dichloro-6,11-dihydrodibenzo[b,e]oxepin-11-yl)amino)-3-hydroxy-4-oxo-1,4-dihydropyridine-2-carboxylic acid] and O=C(O)c1c(O)c(=O)ccn1NC1c2ccccc2COc2ccccc21 (stereo not drawn) [Compound 2, 1-((6,11-dihydrodibenzo[b,e]oxepin-11-yl)amino)-3-hydroxy-4-oxo-1,4-dihydropyridine-2-carboxylic acid] fall in the same range of pEC50: 4.00 to 5.00 for the first, 4.00 to 5.00 for the second.

O=c1ccn(N(Cc2ccccc2)C2c3ccccc3COc3ccccc32)cc1O (stereo not drawn) [Compound 27] and COC(=O)c1c(O)c(=O)ccn1N(Cc1ccccc1)C1c2ccccc2COc2ccccc21 (stereo not drawn) [Compound 26] cannot be ordered by pEC50: < 4.00 for the first, < 4.00 for the second.

First: O=C(O)c1c(O)c(=O)ccn1NC1c2ccccc2CSc2cc(F)c(F)cc21 (stereo not drawn) [Compound 88]
Second: O=C(O)c1c(O)c(=O)ccn1NC1c2cc(F)c(F)cc2CSc2ccccc21 (stereo not drawn) [Compound 95]
The pEC50 of the first is lower: 4.00 to 5.00 for the first, 5.00 to 6.00 for the second.

First: O=C(Nc1cccc(C(F)(F)F)c1)c1c(O)c(=O)ccn1NC1c2ccccc2COc2ccccc21 (stereo not drawn) [Compound 13, 1-((6,11-dihydrodibenzo[b,e]oxepin-11-yl)amino)-3-hydroxy-4-oxo-N-(3-(trifluoromethyl)phenyl)-1,4-dihydropyridine-2-carboxamide]
Second: O=C(Nc1ccc(C(F)(F)F)cc1)c1c(O)c(=O)ccn1NC1c2ccccc2COc2ccccc21 (stereo not drawn) [Compound 35]
The pEC50 of the first is higher: 5.00 to 6.00 for the first, < 4.00 for the second. The first is the more potent here.

CNC(=O)c1cn(NC2c3ccccc3COc3ccccc32)c(C(=O)NC)c(O)c1=O (stereo not drawn) [Compound 103] and CCOC(=O)c1cn(NC2c3ccccc3COc3ccccc32)c(C(=O)OCC)c(O)c1=O (stereo not drawn) [Compound 104] cannot be ordered by pEC50: < 4.00 for the first, < 4.00 for the second.

Compared with O=C(O)c1c(O)c(=O)ccn1NC1c2cc(Cl)c(Cl)cc2CSc2ccccc21 (stereo not drawn) [Compound 117], CNC(=O)c1c(O)c(=O)ccn1NC1c2ccccc2CSc2cc(Cl)c(Cl)cc21 (stereo not drawn) [Compound 79, 1-((2,3-dichloro-6,11-dihydrodibenzo[b,e]thiepin-11-yl)amino)-3-hydroxy-N-methyl-4-oxo-1,4-dihydropyridine-2-carboxamide] is lower in pEC50: 4.00 to 5.00 for the first, < 4.00 for the second.

O=C(O)c1cn(CC2c3ccccc3COc3ccccc32)c(C(=O)O)c(O)c1=O (stereo not drawn) [Compound 73] and CN(Cc1ccccc1)C(=O)c1c(O)c(=O)ccn1CC1c2ccccc2COc2ccccc21 (stereo not drawn) [Compound 57] cannot be ordered by pEC50: < 4.00 for the first, < 4.00 for the second.

First: O=C(NOCc1ccccc1)c1c(O)c(=O)ccn1NC1c2ccccc2SCc2c1ccc(F)c2F (stereo not drawn) [Compound 130, N-(benzyloxy)-1-((7,8-difluoro-6,11-dihydrodibenzo[b,e]thiepin-11-yl)amino)-3-hydroxy-4-oxo-1,4-dihydropyridine-2-carboxamide]
Second: CNC(=O)c1c(O)c(=O)ccn1NC1c2ccccc2SCc2c1ccc(F)c2F (stereo not drawn) [Compound 41]
The pEC50 of the first is higher: 5.00 to 6.00 for the first, < 4.00 for the second. The first is the more potent here.

CNC(=O)c1c(O)c(=O)ccn1NC1CCN(C)c2ccccc21 (stereo not drawn) [Compound 45] and CNC(=O)c1c(O)c(=O)ccn1NC1CCN(Cc2ccccc2)c2ccccc21 (stereo not drawn) [Compound 44] cannot be ordered by pEC50: < 4.00 for the first, < 4.00 for the second.

First: O=C(O)c1c(O)c(=O)ccn1NC(c1ccccc1)c1cccc2ccccc12 (stereo not drawn) [Compound 112]
Second: CN(Cc1ccccc1)C(=O)c1c(O)c(=O)ccn1NC1c2ccccc2COc2ccccc21 (stereo not drawn) [Compound 6]
The pEC50 of the first is lower: 4.00 to 5.00 for the first, 5.00 to 6.00 for the second. The second is the more potent here.

First: O=C(O)c1c(O)c(=O)ccn1NC1c2ccccc2OCc2c1ccc(F)c2F (stereo not drawn) [Compound 75]
Second: O=C(O)c1c(O)c(=O)ccn1NC1c2ccc(F)c(F)c2COc2c1ccc(F)c2F (stereo not drawn) [Compound 80]
The pEC50 of the first is lower: 4.00 to 5.00 for the first, 5.00 to 6.00 for the second. The second is the more potent here.

CNC(=O)c1c(O)c(=O)ccn1NC1CCCN(Cc2ccccc2)c2ccccc21 (stereo not drawn) [Compound 54] and COC(=O)c1c(O)c(=O)ccn1NC1CCCN(Cc2ccc(OC)cc2)c2ccccc21 (stereo not drawn) [Compound 9] cannot be ordered by pEC50: < 4.00 for the first, < 4.00 for the second.

First: O=C(NCc1ccc(O)cc1)c1c(O)c(=O)ccn1NC1c2ccccc2COc2ccccc21 (stereo not drawn) [Compound 32]
Second: O=C(NCc1ccc2ccccc2c1)c1c(O)c(=O)ccn1NC1c2ccccc2COc2ccccc21 (stereo not drawn) [Compound 22]
The pEC50 of the first is lower: < 4.00 for the first, 5.00 to 6.00 for the second.

First: O=C(O)c1cn(NC2c3ccccc3SCc3c2ccc(F)c3F)cc(O)c1=O (stereo not drawn) [Compound 120]
Second: CC(C)c1ccc2c(c1)C(Nn1ccc(=O)c(O)c1C(=O)O)c1ccc(F)c(F)c1CS2 (stereo not drawn) [Compound 113]
The pEC50 of the first is higher: 5.00 to 6.00 for the first, < 4.00 for the second.

O=C(Nc1cccc(C(F)(F)F)c1)c1c(O)c(=O)ccn1CC1c2ccccc2COc2ccccc21 (stereo not drawn) [Compound 48] and O=C(Nc1ccccc1)c1c(O)c(=O)ccn1NC1c2ccccc2COc2ccccc21 (stereo not drawn) [Compound 11] cannot be ordered by pEC50: < 4.00 for the first, < 4.00 for the second.

First: O=C(O)c1c(O)c(=O)ccn1NC1c2ccccc2CSc2c1ccc(Cl)c2Cl (stereo not drawn) [Compound 87]
Second: O=C(O)c1c(O)c(=O)ccn1NC1c2ccc(C(F)(F)F)cc2COc2ccccc21 (stereo not drawn) [Compound 86]
The pEC50 of the first is higher: 5.00 to 6.00 for the first, < 4.00 for the second. The first is the more potent here.

First: CNC(=O)c1c(O)c(=O)ccn1NC1c2ccccc2CSc2cc(F)c(F)cc21 (stereo not drawn) [Compound 78]
Second: CNC(=O)c1c(O)c(=O)ccn1NC1c2ccccc2COc2cc(Cl)c(Cl)cc21 (stereo not drawn) [Compound 76, 1-((2,3-dichloro-6,11-dihydrodibenzo[b,e]oxepin-11-yl)amino)-3-hydroxy-N-methyl-4-oxo-1,4-dihydropyridine-2-carboxamide]
The pEC50 of the first is higher: 5.00 to 6.00 for the first, < 4.00 for the second. The first is the more potent here.

In the case of O=C(O)c1c(O)c(=O)ccn1NC1c2ccc(-c3ccc(F)cc3)cc2SCc2c1ccc(F)c2F (stereo not drawn) [Compound 123], the pEC50 was 4.00 to 5.00.

Same assay, conditions: Influenza A virus, H1N1 / PR/8, MDCK, 96 h, read-out: Influenza H1N1 affinity, EC50

In the case of CNC(=O)c1cn(CC2c3ccccc3COc3ccccc32)c(C(=O)NC)c(O)c1=O (stereo not drawn) [Compound 65, 1-((6,11-dihydrodibenzo[b,e]oxepin-11-yl)methyl)-3-hydroxy-N2,N5-dimethyl-4-oxo-1,4-dihydropyridine-2,5-dicarboxamide], the pEC50 was < 4.00.
